Assay results as given in patent publication US20170049726A1, “METFORMIN IN TREATMENT OF NEUROBLASTOMA” (UNIVERSITY OF SOUTH CAROLINA, priority 2015, published 2017).

Legend:
SK-N-BE(2) tumors = assay: Immunohistochemistry of cleaved caspase-3 and sox2 in SK-N-BE(2) tumor sections; assay type: in vivo, athymic nude mice (nu/nu); conditions: tumors from mice treated with metformin 100 mg/kg daily oral
Method: For tumor tissue, paraformaldehyde-fixed paraffin-embedded tumor sections (5 μm thick) were deparaffinized in xylene, rehydrated with sequential immersion in graded ethanol (100%, 95%, 85%, 70% and 50%). Antigen unmasking was carried out by boiling slides in 10 mM sodium citrate buffer, pH 6.0, at 95° C. for 30 min. After cooling down at room temperature, sections were incubated with 0.1M glycine+0.3% Triton X-100/PBS for 30 min, and were blocked with 10% IgG-free BSA in 1×PBS for overnight at 4° C. Sections were incubated with primary antibodies diluted in 5% IgG-free BSA+0.3% Triton X-100/PBS (1:100 dilution) for overnight at 4° C. Primary antibodies were detected as described in previous paragraph. Primary antibodies used were: sox2, oct4 and nanog, and active form of caspase-3.
To determine if metformin inhibition of tumor growth resulted from apoptotic cell death in tumor stem cells, immunohistochemistry was performed by staining paraffin-embedded tumor sections with antibodies specific for active cleaved form of caspase-3 (an indicator of apoptosis) and stem cell specific marker sox2.

SK-N-BE(2) cells [1] = assay: Secondary spheroid formation assay (self-renewal); assay type: cell-based, human; conditions: metformin at lower concentration (0.1 mM), 20 days
Method: (§1) For spheroid formation, adherent cells were trypsin digested (0.25% Trypsin-EDTA) for 3-4 min at 37° C., washed and suspended in the serum-free stem cell specific medium [DMEM/F-12 medium (Lonza, Switzerland) supplemented with 1% N-2 supplement, 2% B-27 without vitamin A, 20 ng/ml human recombinant epidermal growth factor (hrEGF), 20 ng/ml human recombinant basic fibroblast growth factor (bFGF) and 1% antibiotic-antimycotic solution; all from Gibco]. The dispersed single cells were plated at density of 1,000 cells/well in Costar ultra-low attachment six-well plates (Corning Inc., Corning, N.Y.), and treated with indicated concentrations of metformin. […]
To test the effect of metformin in neuroblastoma spheroid formation, SK-N-BE(2) cells were grown in stem cell specific medium on ultra-low attachment plates and the growth of spheroid formation was monitored For spheroid formation assays, SK-N-BE(2) cells were seeded at density of 1000 cells per well in six-well plate in stem cell-specific medium with or without metformin (0.1, 0.5, 1, 10 and 20 mM). After 20 days, pictures of formed spheroids were taken and the number of spheroids equal to or larger than 100 μm in size (termed primary spheroids) was counted (FIG. 7 at A and B). […] Secondary spheroid formation (as an indicator of self-renewal potential of neuroblastoma spheres) was analyzed. […]

SK-N-BE(2) spheroids = assay: Immunofluorescence of cleaved caspase-3 in SK-N-BE(2) spheroids; assay type: cell-based, human; conditions: metformin-treated SK-N-BE(2) spheroids
Method: (§2) Neuroblastoma cells grown in Lab-TekII chamber slides (Fisher Scientific, Pittsburgh, Pa.) were treated with metformin in complete culture medium. After treatments, cells were washed with 1×PBS, fixed with 4% paraformaldehyde/PBS for 20 min, and incubated in 1×PBS buffer containing 0.1M glycine and 0.3% Triton X-100 for 30 min at room temperature. Cells were washed with 1×PBS for 4 times (10 min each) and blocked with 5% immunoglobulin (IgG)-free bovine serum albumin (BSA; Jackson ImmunoResearch Laboratories, West Grove, Pa.) in 1×PBS for overnight at 4° C. Cells were incubated with antibodies raised against sox2, oct4 and nanog, and active form of caspase-3 diluted in 2.5% BSA+0.3% Triton X-100 in PBS for overnight at 4° C. Primary antibodies were detected with secondary antibodies conjugated with AlexaFluor-488 or AlexaFluor-568 for 2 h at room temperature. After washing with 1×PBS, cells were mounted with antifade Vectashield™ mounting media (Vector Laboratories, Burlingame, Calif.), and signals were visualized under Nikon™-E600 fluorescence microscope. Nuclei were stained with 4′, 6-diamidino-2-phenylindole (DAPI; Sigma).

[2] = tested on: tumors generated from SK-N-BE(2) spheroids; assay: In vivo xenograft of tumors generated from SK-N-BE(2) spheroids; parameters: species or system athymic nude mice (nu/nu); conditions: 100 mg/kg daily by oral gavage, 21 days of treatment, nude mice
Method: SK-N-BE(2) neuroblastoma spheroids (15-day-old) were dissociated by trypsinization, washed with stem cell specific medium and counted. 1×10^5 cells were mixed (1:1 volume) with EGF-reduced matrigel (BD Bioscience, San Jose, Calif.) to make total volume of 0.1 ml. The cell mixture (0.1 ml) was injected subcutaneously (s.c.) into flanks of 6-week-old female nude athymic mice (nu/nu mice; Charles River Laboratories, Wilmington, Mass.). The animals were housed at 25° C. with a 12-h light/12-h dark cycle in laminar flow cabinets under specific pathogen-free conditions and given sterile water and food ad libitum. Engrafted mice were inspected for tumor appearance, and tumor growth was measured on every fourth day using a caliper. Tumor volume was calculated using the ellipsoid formula (length×width×height×0.5). […]
To assess whether metformin has inhibitory effects on the tumorigenicity of neuroblastoma stem cells, tumors were generated from neuroblastoma stem cells by inoculating tumor cells from SK-N-BE(2) spheroids (15-day-old) subcutaneously in to the flank region of athymic nude mice. […] The size of tumors was measured on every fourth day, and after 21 days of metformin treatment tumors were harvested and sizes were measured.

sox2 = assay: Western blot of stem cell marker protein sox2 in metformin-treated SK-N-BE(2) cells; assay type: cell-based, human; conditions: metformin 1, 10 and 20 mM, 2 days, vs untreated control
Method: (§3) SH-SY5Y, IMR-32, SK-N-BE(2) and SKNF-1 human neuroblastoma cells were purchased from The American Type Culture Collection (ATCC; Manassas, Va.), and NGP cells were kind gift from Garrett M. Brodeur (The Children's Hospital of Philadelphia, Philadelphia, Pa.). Cells were maintained as monolayer in Dulbecco's Modified Eagle's Medium (DMEM) containing 10% fetal bovine serum (FBS; Atlanta Biologicals, Lawrenceville, Ga.) and 1% antibiotic-antimycotic solution (100 unit/ml penicillin, […]; Gibco, Grand Island, N.Y.) at 37° C. in a humidified incubator with 5% CO2. For all the experiments, cell culture passages from 4-12 were used.
(§4) Cells, either from monolayer or from spheroids, were dissociated by trypsinization, washed with 1× phosphate buffered saline (PBS), pH 7.5, and lysed with 1× cell lysis buffer (Cell Signaling Technology, Danvers, Mass.) containing phenylmethylsulfonyl fluoride (PMSF) and protease inhibitors (aprotinin and leupeptin) for 30 min on ice. […] Protein concentration was determined by bicinchoninic acid method using BCA protein assay kit (Pierce/Thermo-scientific, Waltham, Mass.). Equal amount of proteins were diluted with 5×Laemmli samples loading buffer, boiled for five minutes, separated on sodium dodecyl sulfate (SDS)-polyacrylamide gel, and analyzed by Western blotting. […]

oct4 = assay: Western blot of stem cell marker protein oct4 in metformin-treated SK-N-BE(2) cells; assay type: cell-based, human; conditions: metformin 1, 10 and 20 mM, 2 days, vs untreated control
Method: as §3, §4

SK-N-BE(2) cells [3] = assay: Immunofluorescence staining of cleaved caspase-3 and sox2 in SK-N-BE(2) monolayer cells; assay type: cell-based, human; conditions: metformin 10 mM, 2 days
Method: as §2, with “Sigma). […]” for “Sigma).”

SK-N-BE(2) cells [4] = assay: Primary spheroid formation assay; assay type: cell-based, human; conditions: 20 days
Method: as §1, with “metformin. The stock solution of metformin (MP Biomedicals, Solon, Ohio) was freshly prepared in sterile triple distilled water before each experiment. Cells treated with equal volume of vehicle were used as control. Cell culture medium was changed on every fourth day.” for “metformin.”
To test the effect of metformin in neuroblastoma spheroid formation, SK-N-BE(2) cells were grown in stem cell specific medium on ultra-low attachment plates and the growth of spheroid formation was monitored For spheroid formation assays, SK-N-BE(2) cells were seeded at density of 1000 cells per well in six-well plate in stem cell-specific medium with or without metformin (0.1, 0.5, 1, 10 and 20 mM). After 20 days, pictures of formed spheroids were taken and the number of spheroids equal to or larger than 100 μm in size (termed primary spheroids) was counted (FIG. 7 at A and B). […] Secondary spheroid formation (as an indicator of self-renewal potential of neuroblastoma spheres) was analyzed. After 20 days, the number of formed secondary spheroids (equal or larger than 100 μm in size) was counted and plotted (FIG. 7 at C).

nanog = assay: Western blot of stem cell marker protein nanog in metformin-treated SK-N-BE(2) cells; assay type: cell-based, human; conditions: metformin 1, 10 and 20 mM, 2 days, vs untreated control
Method: as §3, §4

## CN(C)C(=N)NC(=N)N [metformin, N′,N′-dimethylbiguanide]
SK-N-BE(2) tumors
  cytoplasmic cleaved caspase-3 signals in tumor tissues: present
SK-N-BE(2) cells [1]
  secondary spheroid formation: significantly inhibited secondary spheroid formation
SK-N-BE(2) spheroids
  cleaved caspase-3 signal in sox2-expressing cells of spheroids: induced apoptotic death in spheroids
[2]
  size of the subcutaneous tumor vs control: less
sox2
  level of sox2 protein: dose dependently decreased
oct4
  oct4 protein expression: No change
SK-N-BE(2) cells [3]
  cleaved caspase-3 signals (apoptotic cell death): present in both sox2-expressing and sox2-nonexpressing cells
SK-N-BE(2) cells [4]; metformin 0.1 mM
  number of primary spheroids vs control: similar
SK-N-BE(2) cells [4]; metformin 0.5 mM and higher concentrations
  primary spheroid formation: reduced primary spheroid formation significantly
SK-N-BE(2) cells [4]; metformin 0.1, 0.5, 1, 10 and 20 mM, overall vs control
  formation of primary spheroids (equal to or larger than 100 μm): significantly decreased the formation of primary neuroblastoma spheroids in a dose dependent manner
nanog
  level of nanog protein: dose dependently decreased
